Experimental data published in US8895561B2, “Compounds and methods for treating candidiasis and aspergillus infections” (Cellceutix Corporation, priority 2012, dated 2014).
≈ marks a conversion by molar mass, not a printed value. Like-named read-outs stand apart in the source and are kept apart here.

Key:
Assay type in all cases: cell-based
[1] = tested on: C. albicans GDH2346; test: Candida IC50, vegetative cells, by OD600 and fluorescence; conditions: Candida albicans, GDH2346
Protocol: (§1) Candida IC50s were determined by OD600 and fluorescence from vegetative cells and by MTS viability assay in the hyphal state. MICs were determined using a broth microdilution assay under standard CLSI conditions Bacteria strains: E. coli 25922 (EC), S. aureus 27660 (SA), E. faecalis 29212 (EF), P. aeruginosa 10145 (PA), and K. pneumoniae 13883 (KP). Cytotoxicity (EC50) was determined against mouse 3T3 fibroblasts, human transformed liver HepG2 cells, and human oral keratinocyte cell line, OKF6/TERT using an MTS viability assay. Candida IC50s<10 μg/mL, MICs<5 μg/mL and cytotoxicity EC50s>100 μM are indicated in green. MICs>5 μg/mL and cytotoxicity EC50s<100 μM are indicated in red. Candida IC50s (CA) were determined by OD600 and fluorescence from vegetative cells. MICs were determined using a broth microdilution assay under standard CLSI conditions Bacteria strains: E. coli 25922 (EC), S. aureus 27660 (SA), E. faecalis 29212 (EF), P. aeruginosa 10145 (PA), and K. pneumoniae 13883 (KP). Cytotoxicity (EC50) was determined against mouse 3T3 fibroblasts and human transformed liver HepG2 cells using an MTS viability assay. For determination of anti-Candida IC50s, the method was modified by using RPMI/MOPS buffer pH 6.3 and by addition of FDGlu, a substrate for the yeast enzyme exoglucanase which is secreted during cell growth. This provides a fluorescent readout for cell growth which was used in addition to the traditional optical density measure of growth. OD600 and fluorescence were determined at 24 and 48 hours and the average of all 4 reads was used for the final IC50 determination.

[2] = tested on: E. coli 25922; test: Bacterial MIC, broth microdilution, CLSI; conditions: Escherichia coli; E. coli 25922
Protocol: as §1, with “assay.” for “assay. For determination of anti-Candida IC50s, the method was modified by using RPMI/MOPS buffer pH 6.3 and by addition of FDGlu, a substrate for the yeast enzyme exoglucanase which is secreted during cell growth. This provides a fluorescent readout for cell growth which was used in addition to the traditional optical density measure of growth. OD600 and fluorescence were determined at 24 and 48 hours and the average of all 4 reads was used for the final IC50 determination.”

[3] = tested on: human transformed liver HepG2 cells; test: Cytotoxicity, MTS viability assay; conditions: Homo sapiens, HepG2; cytotoxicity
Protocol: (§2) Candida IC50s were determined by OD600 and fluorescence from vegetative cells and by MTS viability assay in the hyphal state. MICs were determined using a broth microdilution assay under standard CLSI conditions Bacteria strains: E. coli 25922 (EC), S. aureus 27660 (SA), E. faecalis 29212 (EF), P. aeruginosa 10145 (PA), and K. pneumoniae 13883 (KP). Cytotoxicity (EC50) was determined against mouse 3T3 fibroblasts, human transformed liver HepG2 cells, and human oral keratinocyte cell line, OKF6/TERT using an MTS viability assay. Candida IC50s<10 μg/mL, MICs<5 μg/mL and cytotoxicity EC50s>100 μM are indicated in green. MICs>5 μg/mL and cytotoxicity EC50s<100 μM are indicated in red.
(§3) Candida IC50s (CA) were determined by OD600 and fluorescence from vegetative cells. MICs were determined using a broth microdilution assay under standard CLSI conditions Bacteria strains: E. coli 25922 (EC), S. aureus 27660 (SA), E. faecalis 29212 (EF), P. aeruginosa 10145 (PA), and K. pneumoniae 13883 (KP). Cytotoxicity (EC50) was determined against mouse 3T3 fibroblasts and human transformed liver HepG2 cells using an MTS viability assay.
(§4) CLSI conditions Bacteria strains: clinical isolates; yeast strains: C. dubliniensis (NCPF3949), C. glabrata (ATCC 90030), C. krusei (ATCC 6258), C. parapsilosis (ATCC 22019), and C. tropicalis (ATCC 750). Cytotoxicity (EC50) was determined against mouse 3T3 fibroblasts, human transformed liver HepG2 cells, and human oral keratinocyte cell line, OKF6/TERT using an MTS viability assay.

[4] = tested on: mouse 3T3 fibroblasts; test: Cytotoxicity, MTS viability assay; conditions: Mus musculus, NIH3T3; cytotoxicity
Protocol: as §2, §3, §4

[5] = tested on: human oral keratinocyte cell line, OKF6/TERT; test: Cytotoxicity, MTS viability assay
Protocol: as §2, §4

[6] = tested on: C. albicans GDH2346; test: Candida MIC, CLSI M27-A3; conditions: Candida albicans, GDH2346
Protocol: (§5) Candida MIC assays were determined in accordance with CLSI guidelines M27-A3 using a clinically isolated C. albicans strain, GDH2346.50% human serum was added to determine activity in the presence of serum.

[7] = tested on: C. dubliniensis (NCPF3949); test: Yeast MIC; conditions: for MIC: Candida dubliniensis, NCPF3949
Protocol: as §5, §4

[8] = tested on: C. glabrata (ATCC 90030); test: Yeast MIC; conditions: for MIC: Nakaseomyces glabratus, ATCC90030
Protocol: as §5, §4

[9] = tested on: C. krusei (ATCC 6258); test: Yeast MIC; conditions: Pichia kudriavzevii, ATCC6258
Protocol: as §5, §4

[10] = tested on: C. parapsilosis (ATCC 22019); test: Yeast MIC; conditions: Lodderomyces parapsilosis, ATCC22019
Protocol: as §5, §4

[11] = tested on: C. tropicalis (ATCC 750); test: Yeast MIC; conditions: Candida tropicalis, ATCC750
Protocol: as §5, §4

[12] = tested on: A. viscosis; test: Commensal bacteria MIC, broth microdilution
Protocol: (§6) Bacterial MICs were determined using a broth microdilution assay under standard
as §4

[13] = tested on: S. salivarius; test: Commensal bacteria MIC, broth microdilution; conditions: Streptococcus salivarius
Protocol: as §6, §4

[14] = vegetative cells, read-out: IC50 Candida, Vegetative
[15] = vegetative cultures, read-out: Anti-C. albicans GDH2346 Vegetative (IC50)
[16] = 50% human serum, read-out: MIC C. albicans GDH2346 + 50% HS
[17] = Table 5, read-out: MIC C. albicans
[18] = without serum, read-out: MIC C. albicans GDH2346
[19] = 50% human serum, read-out: MIC C. dubliniensis + 50% HS
[20] = without serum, read-out: MIC C. dubliniensis
[21] = 50% human serum, read-out: MIC C. glabrata + 50% HS
[22] = without serum, read-out: MIC C. glabrata
[23] = Table 5, read-out: MIC C. dubliniensis
[24] = Table 5, read-out: MIC C. glabrata

IC50 [1, 14] | IC50 [1, 15] | EC50 [2] | MIC [6, 17] | MIC [9] | MIC [10] | MIC [11] | MIC [12] | MIC [13] | SMILES | IC50 [3] | IC50 [4] | IC50 [5] | MIC [6, 16] | MIC [6, 18] | MIC [7, 19] | MIC [7, 20] | MIC C. dubliniensis ([7]; Table 5) | MIC [8, 21] | MIC [8, 22] | MIC C. glabrata ([8]; Table 5) | other results
1.89 µg/mL (≈ 2.59 µM) | – | 50 µg/mL (≈ 68.5 µM) | 8 µg/mL (≈ 11 µM) | 8 µg/mL (≈ 11 µM) | 4 to 8 µg/mL (≈ 5.48 to 11 µM) | 4 µg/mL (≈ 5.48 µM) | > 64 µg/mL | > 64 µg/mL | NCCCOc1cc(-c2cn(-c3cc(OCCCN)cc(OCCCN)c3)nn2)cc(-c2cn(-c3cc(OCCCN)cc(OCCCN)c3)nn2)c1 [Compound 137] | 182 µM | 83 µM | 42 µM | – | – | – | – | – | – | – | – | MIC [7, 23]: 8 to 16 µg/mL (≈ 11 to 21.9 µM); MIC [8, 24]: 8 µg/mL (≈ 11 µM)
4.93 µg/mL (≈ 6.53 µM) | 4.93 µg/mL (≈ 6.53 µM) | 1.56 µg/mL (≈ 2.07 µM) | 4 to 8 µg/mL (≈ 5.3 to 10.6 µM) | 8 µg/mL (≈ 10.6 µM) | 8 µg/mL (≈ 10.6 µM) | 4 µg/mL (≈ 5.3 µM) | > 64 µg/mL | > 64 µg/mL | NCCSc1cc(SCCN)c(C(F)(F)F)cc1NC(=O)c1cc(C(=O)Nc2cc(C(F)(F)F)c(SCCN)cc2SCCN)ncn1 [Compound 100] | > 1000 µM | 439 µM | > 1000 µM | – | – | – | – | – | – | – | – | MIC [7, 23]: 8 µg/mL (≈ 10.6 µM); MIC [8, 24]: 16 µg/mL (≈ 21.2 µM)
4.24 µg/mL (≈ 8.75 µM) | 4.24 µg/mL (≈ 8.75 µM) | > 50 µg/mL | 4 µg/mL (≈ 8.25 µM) | 32 µg/mL (≈ 66 µM) | 4 to 8 µg/mL (≈ 8.25 to 16.5 µM) | 4 to 8 µg/mL (≈ 8.25 to 16.5 µM) | 4 µg/mL (≈ 8.25 µM) | 16 µg/mL (≈ 33 µM) | N=C(N)N1CCN(c2ccc(-c3cc(-c4ccc(N5CCN(C(=N)N)CC5)cc4)ncn3)cc2)CC1 [Compound 136] | 453 µM | 311 µM | 466 µM | 2 µg/mL | 4 µg/mL (≈ 8.25 µM) | 2 µg/mL | 8 µg/mL (≈ 16.5 µM) | 8 µg/mL (≈ 16.5 µM) | 1 µg/mL | 4 µg/mL (≈ 8.25 µM) | 4 µg/mL (≈ 8.25 µM) | IC50 ([1]; Table 6, read-out: IC50 C. albicans): 1.4 µg/mL (≈ 2.89 µM)

SMILES | IC50 [1, 14] | IC50 [1, 15] | EC50 [2] | MIC [6, 17] | MIC [9] | MIC [10] | MIC [11] | MIC [12] | MIC [13] | IC50 [3] | IC50 [4] | IC50 [5] | MIC [6, 16] | MIC [6, 18] | MIC [7, 19] | MIC [7, 20] | MIC C. dubliniensis ([7]; Table 5) | MIC [8, 21] | MIC [8, 22] | MIC C. glabrata ([8]; Table 5) | other results
NCCCOc1cc(OCCCN)cc(-c2ccc3c(c2)c2cc(-c4cc(OCCCN)cc(OCCCN)c4)ccc2n3CCCN)c1 [Compound 135] | 1.44 µg/mL (≈ 2.15 µM) | 1.44 µg/mL (≈ 2.15 µM) | 6.25 µg/mL (≈ 9.34 µM) | 4 µg/mL (≈ 5.98 µM) | 16 µg/mL (≈ 23.9 µM) | 2 µg/mL (≈ 2.99 µM) | 2 to 4 µg/mL (≈ 2.99 to 5.98 µM) | > 64 µg/mL | > 64 µg/mL | 885 µM | 436 µM | 766 µM | 2 µg/mL | 4 µg/mL (≈ 5.98 µM) | 1 µg/mL | 4 µg/mL (≈ 5.98 µM) | 4 µg/mL (≈ 5.98 µM) | 2 µg/mL | 2 µg/mL (≈ 2.99 µM) | 2 µg/mL (≈ 2.99 µM) | –
